Measured values: patent US8206722B2, “Somatostatin receptor antagonists and glucose control or hypoglycemia” (The Governing Council of the University of Toronto, priority 2007, dated 2012)

Assays:
SSTR-2 = SSTR-2 (Homo sapiens, UniProt P30874); conditions: antagonist at SSTR-2, cited from earlier work
[1] = system: non-diabetic and STZ-diabetic rats; assay: Insulin-induced hypoglycemic glucose clamp with SSTR antagonist infusion in non-diabetic and STZ-diabetic rats; assay type: in vivo, rat
Experimental: FIG. 1 indicates levels of plasma glucose levels in four groups of rats during the 1-h SSTR antagonist/saline pretreatment and 3-h hypoglycemic clamp experiment. […] A similar glycemic profile is observed in FIG. 1B when another dose of insulin and SSTR antagonist (DC-41-33) were tested (5 U/kg and 3000 nmol/kg/h, respectively).
Non-diabetic and STZ-diabetic rats were injected with insulin (10 U/kg and 5 U/kg). These doses yielded reproducible responses of plasma glucose (FIG. 1). In diabetic rats, plasma glucose is elevated approximately 3- to 4-fold before hypoglycemia is induced. A subcutaneous injection of insulin was given immediately after the sample was taken at time 0 in all groups of rats to induce hypoglycemia. Plasma glucose levels dropped to the same target hypoglycemia (2.75±0.25 mM) in both non-diabetic and diabetic rats. […] This technique of glucose clamping is a well-established method in diabetes research which allows precise comparison between different groups at a specific glycemic level.
This technique is referred to as the “glucose clamp” and is achieved by intravenously infusing glucose whenever necessary.

[2] = system: isolated, perfused pancreas; conditions: perfused pancreas of non-diabetic rats; cited from earlier work
non-diabetic rats = conditions: cited from earlier work
isolated islets = isolated islets and perifused isolated islets; reversed dose-dependently by added somatostatin; cited from earlier work

SSTR-2, sequence (P30874 whole entry, species assumed, the tested form may be a part): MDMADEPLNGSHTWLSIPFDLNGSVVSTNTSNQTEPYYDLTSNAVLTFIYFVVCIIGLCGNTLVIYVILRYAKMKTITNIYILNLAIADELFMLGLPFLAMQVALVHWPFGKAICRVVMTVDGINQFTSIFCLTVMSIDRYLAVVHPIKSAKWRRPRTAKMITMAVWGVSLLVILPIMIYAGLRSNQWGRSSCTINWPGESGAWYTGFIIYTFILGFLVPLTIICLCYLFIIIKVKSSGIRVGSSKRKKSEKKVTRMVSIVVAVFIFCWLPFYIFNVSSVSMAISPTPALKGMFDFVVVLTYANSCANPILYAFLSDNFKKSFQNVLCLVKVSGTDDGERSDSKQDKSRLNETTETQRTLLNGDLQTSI

Substance: H-Cpa-cyclo[Cys-Pal-DTrp-Lys-Ile-Cys]-Nal-NH2 [PRL-2915]
- Affinity (nM), Units pKi (SSTR-2): 7.9 pKi

Substance: H-Cpa-cyclo[DCys-Tyr-DTrp-Lys-Thr-Cys]-Nal-NH2 (XCYWKTCX; Cpa, Nal, D-residues, cyclic disulfide, C-terminal amide; Synthetic - PRL-2970)
- Affinity (nM), Units pKi (SSTR-2): 7.6 pKi

Substance: H-Fpa-cyclo[DCys-Pal-DTrp-Lys-Tle-Cys]-Nal-NH2 [DC-41-33]
- plasma epinephrine levels during basal infusion of antagonist ([1]; basal infusion before insulin, antagonist 1500 nmol/kg/h, FIG. 7): did not affect plasma epinephrine levels
- growth hormone (GH) levels ([1]; diabetic rats, regardless of hypoglycemia, insulin 5 U/kg, antagonist 3000 nmol/kg/h, FIG. 9): did not affect GH levels
- peak glucagon response to hypoglycemia, increase ([1]; diabetic rats, insulin 5 U/kg, antagonist 3000 nmol/kg/h, FIG. 3): ~7 fold
- corticosterone response to hypoglycemia ([1]; diabetic rats, insulin 5 U/kg, antagonist 3000 nmol/kg/h, FIG. 5): fully normalized
- plasma glucagon before insulin and throughout hypoglycemia ([1]; diabetic rats, insulin 10 U/kg, antagonist 1500 nmol/kg/h, FIG. 2): glucagon was increased
- increase in plasma epinephrine levels (AUC) in response to hypoglycemia ([1]; diabetic rats, insulin 10 U/kg, antagonist 1500 nmol/kg/h, FIG. 7): 4 fold
- plasma norepinephrine during basal infusion and insulin-induced hypoglycemia ([1]; insulin 10 U/kg, antagonist 1500 nmol/kg/h, FIG. 8): no effect
- glucose infusion requirement during 3 h hypoglycemic clamp ([1]; non-diabetic and diabetic rats versus untreated controls, insulin 5 U/kg, antagonist 3000 nmol/kg/h, FIG. 6): less glucose infusion was necessary
- corticosterone response to hypoglycemia ([1]; non-diabetic and diabetic rats, insulin 10 U/kg, antagonist 1500 nmol/kg/h, FIG. 4): augmented to the same extent
- corticosterone response to hypoglycemia ([1]; non-diabetic and diabetic rats, insulin 10 U/kg, antagonist 1500 nmol/kg/h, FIG. 4, listed as SSTR2 antagonist): increases in the corticosterone response
- increase in plasma glucagon induced by insulin, with versus without antagonist ([1]; non-diabetic rats, insulin 10 U/kg, antagonist 1500 nmol/kg/h, FIG. 2): 3 fold
- glucagon secretion [2]: enhances glucagon secretion
- insulin secretion [2]: without affecting insulin secretion
- reversal of inhibition by GIP, GIP-(1-30)NH2 and GLP-1(7-36)NH2 of pentagastrin-stimulated gastric acid secretion (non-diabetic rats): able to reverse the inhibitory effect
- IC50 (SSTR-2; Units column prints pIC50, read-out: Affinity (nM), Units pIC50 (converted)): 27.4 nM
- glucagon secretion to an arginine stimulus (isolated islets): dose-dependently increases glucagon secretion

Substance: HFIRWF [AC-178,335, Ac-His-Phe-Ile-Arg-Trp-Phe-NH2]
- Affinity (nM), Units pKi (SSTR-2): 6.8 pKi
